Measured values taken from patent publication US20070098826A1, “Use of pinitol or chiroinositol for protecting the liver” (AMICOGEN, INC., priority 2003, published 2007).

Assays:
SOD activity in liver = assay: Determination of SOD activity in liver of carbon tetrachloride treated rats; assay type: in vivo, Sprague-Dawley rats; details: for SOD activity (U/g Liver): CCl4 i.p., liver 24 hours later; for SOD activity Relative Value (%): control group = 100
Description: The rats were divided into 7 groups and pinitol dissolved in 10 ml of water was orally administered to the rats of the experimental groups in an amount of 200-1000 mg/kg of rat body weight everyday for 4 days. The comparative group rats were treated with Silymarin (Sigma Chemical Co.) in an amount of 200 mg/kg, the normal and control groups were each treated with 10 ml of distilled water. On day 4, a mixture of carbon tetrachloride and soybean oil (1:1 (v/v)) was injected intraperitoneally into the rats except the rats of the normal group in an amount of 0.5 ml/kg, 90 minutes after the administration of pinitol. 24 hours thereafter, SOD activity of the liver taken out from each rat was measured according to the method of Neoot et al., (Methods Enzymol., 186: 209-219 (1993)) and tested by student t-test.

[1] = system: glutathione content of liver; assay: Content of glutathione in liver of streptozotocin diabetic rats; assay type: in vivo, Sprague-Dawley rats; details: for Glutathione content as compared to the normal group / Glutathione content Relative value: 10 mg/kg; for Glutathione content (μ mole/g): 10 mg/kg oral everyday for 4 days, liver; for Glutathione content Relative value: normal group = 100
Description: In order to induce diabetes in rats, streptozotocin (Sigma Chemical Co., USA) dissolved in 0.01M citrate buffer solution (pH 4.5) was injected into the abdominal cavity of 8 week-old Sprague-Dawley rats in an amount of 45 mg/kg of rat body weight. […] The diabetic rats were divided into 3 groups, each of 12-15 rats, and pinitol or chiroinositol dissolved in 10 ml of water was orally administered to the rats of two groups (experimental groups 1 and 2) in an amount of 10 mg/kg of rat body weight everyday for 4 days. Rats of the normal group and control group (diabetic group) were each treated with 10 ml of distilled water. After fasting during 18 hours, the rats were anesthetized with ethyl ether, sacrificed, the liver was taken and washed with cold physiological saline. The glutathione content of the homogenized liver solution was measured according to the method of Ellman (Arch. Biochem. Biophy., 70-77 (1959)) and the result is shown in Table IV.

[2] = system: Liver Damaged by Carbon Tetrachloride; assay: Protective activity for the liver damaged by carbon tetrachloride (blood GOT and GPT); assay type: in vivo, Sprague-Dawley rats; details: CCl4 rats; for GOT / GPT: blood on day 8; for GOT Inhibition (%) / GPT Inhibition (%): day 8
Description: The rats were divided into 8 groups and carbon tetrachloride was injected subcutaneously into the rats except the rats of the normal group in an amount of 0.5 ml/kg at 1st and 5th day. On day 2, pinitol or chiroinositol dissolved in 10 ml of water was orally administered to the rats of the experimental groups in an amount of 5-20 mg/kg of rat body weight. The normal and control groups were treated with 10 ml of distilled water instead of pinitol. On day 8, GOT and GPT concentrations in the blood sample taken from the orbital vein of each rat was measured by using blood analyzer (Vitros DT-60, Johnson & Johnson) and the result is shown in Table II. The degree of inhibition (%) was then calculated in accordance with the following equation: [formula]

[3] = system: serum GOT, GPT and γ-GTP levels; assay: Protective activity for liver in adults with elevated serum GOT or γ-GTP (serum GOT, GPT, γ-GTP); assay type: in vivo, human; details: oral 600 mg daily for 2 months
Description: Pinitol was orally administered to adults (the average age: 51.8 years, man 7 and female 8) showing serum GOT or γ-GPT level higher than 50 IU/L at a daily dose of 600 mg for 2 months. Serum GOT, GPT and γ-GTP levels were determined before and after the administration.

[4] = rats, oral, 5,000 mg/kg, day 14
Description: 6 week-old, specific pathogen-free Sprague-Dawley female rats (15 heads), each weighing about 130 to 147 g, and male rats (15 heads), each weighing about 110 to 123 g, were bred under the condition of 23±3° C., 55±15% relative humidity and 12 L/12 D photoperiod. Fodder (Harlan, U.S.A.) and water were sterilized and fed to the rats. The rats were acclimated for 1 week before the administration of pinitol.
Pinitol was dissolved in physiological saline and the solution was orally administered to each rat in an amount of 5,000 mg/kg of rat body weight. […] The weight changes of the rats were recorded at day 1, 3, 7 and 14 to examine the effect of pinitol. Further, on day 14, the rats were sacrificed and the internal organs were visually examined.

## CO[C@H]1[C@H](O)[C@@H](O)[C@@H](O)[C@H](O)[C@@H]1O [Pinitol, pinitol]
SOD activity in liver; 200 mg/kg
  SOD activity lower than that of the control group by: 7%
  SOD activity Relative Value (%): 93%
SOD activity in liver; 200 mg/kg oral everyday for 4 days
  SOD activity (U/g Liver): 217 ± 74 U/g Liver
SOD activity in liver; 300 mg/kg
  SOD activity higher than that of the control group by: 24%
  SOD activity Relative Value (%): 124%
SOD activity in liver; 300 mg/kg oral everyday for 4 days
  SOD activity (U/g Liver): 289 ± 45 U/g Liver
SOD activity in liver; 300 mg/kg, p<0.05
  Effect on SOD activity in the liver: raises SOD activity in the liver
SOD activity in liver; 500 mg/kg
  SOD activity higher than that of the control group by: 44%
  SOD activity Relative Value (%): 144%
SOD activity in liver; 500 mg/kg oral everyday for 4 days
  SOD activity (U/g Liver): 335 ± 52 U/g Liver
SOD activity in liver; 1000 mg/kg
  SOD activity higher than that of the control group by: 35%
  SOD activity Relative Value (%): 135%
SOD activity in liver; 1000 mg/kg oral everyday for 4 days
  SOD activity (U/g Liver): 315 ± 38 U/g Liver
[1]
  Glutathione content as compared to the normal group: 96%
  Glutathione content (μ mole/g): 16.38 ± 2.43 μ mole/g
  Glutathione content Relative value: 95.8
[2]; 5 mg/kg oral
  GOT: 298 ± 28 IU/L
  GPT: 134 ± 7 IU/L
  GOT Inhibition (%): 49.7%
  GPT Inhibition (%): 54.6%
[2]; 10 mg/kg oral
  GOT: 188 ± 22 IU/L
  GPT: 92 ± 5 IU/L
  GOT Inhibition (%): 73.4%
  GPT Inhibition (%): 72.9%
[2]; 20 mg/kg oral
  GOT: 192 ± 17 IU/L
  GPT: 75 ± 4 IU/L
  GOT Inhibition (%): 72.6%
  GPT Inhibition (%): 80.3%
[3]
  Serum GOT After administration: 31.4 ± 3.0 IU/L
  Serum GPT After administration: 43.2 ± 8.1 IU/L
  Serum γ-GTP After administration: 82.6 ± 17.5 IU/L
[3]; vs before administration
  Serum GOT Degree of decrease (%): 45.3%
  Serum GPT Degree of decrease (%): 51.8%
  Serum γ-GTP Degree of decrease (%): 41.1%
[4]
  Autopsy, pathological abnormality of internal organs: did not develop any pathological abnormality

## OC1C(O)C(O)C(O)C(O)C1O (centres unmarked) [chiroinositol]
[1]
  Glutathione content as compared to the normal group: 85%
  Glutathione content (μ mole/g): 14.52 ± 0.57 μ mole/g
  Glutathione content Relative value: 85.0
[2]; 5 mg/kg oral
  GOT: 321 ± 35 IU/L
  GPT: 156 ± 12 IU/L
  GOT Inhibition (%): 44.0%
  GPT Inhibition (%): 45.0%
[2]; 10 mg/kg oral
  GOT: 205 ± 28 IU/L
  GPT: 80 ± 9 IU/L
  GOT Inhibition (%): 69.4%
  GPT Inhibition (%): 78.2%
[2]; 20 mg/kg oral
  GOT: 174 ± 26 IU/L
  GPT: 88 ± 7 IU/L
  GOT Inhibition (%): 76.1%
  GPT Inhibition (%): 74.7%
